Source: patent publication US9617244B2, “Antibacterial quinoline derivatives” (JANSSEN PHARMACEUTICA NV, priority 2012, dated 2017)
Values after ≈ are worked out from the molar mass of the structure shown.

What was measured:
[1] = test system: Staphylococcus aureus (ATCC29213); experiment: In-vitro anti-bacterial activity, microtitre plate assay, IC90 determination (non-mycobacterial strains); format: cell-based; conditions: 90% inhibitory concentration for bacterial growth, resazurin fluorescence; for IC90 STA B29213: 24 hours; for IC90: Staphylococcus aureus, ATCC29213, 24 h, read-out: IC90 STA B29213
How it was run: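 Growth inhibition measured fluorometrically with resazurin (530/590 nm) after overnight 37 °C incubation under normal atmosphere. Bacteria added at roughly 100 TCID50 per well in Mueller-Hinton broth to five-fold compound dilution series; IC90 reported in μg/ml.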

[2] = test system: Mycobacterium smegmatis (ATCC607); experiment: In-vitro anti-bacterial activity against strain M. Smegmatis ATCC607; format: cell-based; conditions: 90% inhibitory concentration for bacterial growth, Alamar Blue fluorescence; for IC90 MSM 607: 48 hours; for IC90: Mycolicibacterium smegmatis, ATCC607, 48 h, read-out: IC90 MSM 607
How it was run: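 IC90 (μg/ml) derived from Alamar Blue fluorescence (530/590 nm) after 48 h growth at 37 °C under 5% CO2. About 250 CFU per well in Mueller-Hinton broth faced five-fold serial compound dilutions in BSA-containing wells.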

Row | SMILES | IC90 STA B29213 [1] [µg/mL] | melting point [°C] | IC90 MSM 607 [2] [µg/mL] | IC90 [1] [µg/mL] | IC90 [2] [µg/mL]
1 | CSc1ccc2[nH]c(=O)c(C(c3cccc(Cl)c3)C3(O)CCNC(c4ccc(F)cc4C)C3)cc2c1 (stereo not drawn) [Compound 174] | 3.30 (≈ 6.31 µM) | 171 | 3.30 (≈ 6.31 µM) | – | –
2 | CSc1ccc2[nH]c(=O)c(C(c3cccc(Cl)c3)C3(O)CCNC(c4ccc(F)cc4C)C3)cc2c1 (stereo not drawn) [Compound 175] | 2.34 (≈ 4.47 µM) | 194 | 3.30 (≈ 6.31 µM) | – | –
3 | CSc1ccc2[nH]c(=O)c(C(c3cccc(Cl)c3)C3(O)CCNC(c4ccc(F)cc4C)C3)cc2c1 (stereo not drawn) [Compound 176] | 3.30 (≈ 6.31 µM) | 192 | 3.30 (≈ 6.31 µM) | – | –
4 | CSc1ccc2[nH]c(=O)c(C(c3ccccc3)C3(O)CCNC(c4ccc(F)cc4C)C3)cc2c1 (stereo not drawn) [Compound 178] | 6.15 (≈ 12.6 µM) | > 250 | 4.89 (≈ 10 µM) | – | –
5 | CSc1ccc2[nH]c(=O)c(C(c3ccccc3)C3(O)CCNC(c4ccc(F)cc4C)C3)cc2c1 (stereo not drawn) [Compound 180] | 3.08 (≈ 6.3 µM) | 186 | 3.08 (≈ 6.3 µM) | – | –
6 | CSc1ccc2[nH]c(=O)c(C(c3ccccc3)C3(O)CCNC(c4ccc(F)cc4C)C3)cc2c1 (stereo not drawn) [Compound 181] | 6.15 (≈ 12.6 µM) | 173 | 9.75 (≈ 20 µM) | – | –
7 | COc1nc2ccc(S(C)(=O)=O)cc2cc1C(c1ccccc1)C1(O)CCNC(c2ccc(F)cc2C)C1 (stereo not drawn) [Compound 184] | – | 172 | – | 13.4 (≈ 25.1 µM) | 13.4 (≈ 25.1 µM)
8 | COc1nc2ccc(S(C)(=O)=O)cc2cc1C(c1ccccc1)C1(O)CCNC(c2ccc(F)cc2C)C1 (stereo not drawn) [Compound 185] | 13.43 (≈ 25.1 µM) | 162 | 8.47 (≈ 15.8 µM) | – | –
9 | COc1nc2ccc(S(C)(=O)=O)cc2cc1C(c1ccccc1)C1(O)CCNC(c2ccc(F)cc2C)C1 (stereo not drawn) [Compound 186] | 9.51 (≈ 17.8 µM) | 166 | 8.47 (≈ 15.8 µM) | – | –
10 | COc1nc2ccc(S(C)(=O)=O)cc2cc1C(c1ccccc1)C1(O)CCNC(c2ccc(F)cc2C)C1 (stereo not drawn) [Compound 187] | >13.43 | 167 | 13.43 (≈ 25.1 µM) | – | –
11 | COc1nc2ccc(SC)cc2cc1C(c1ccc(Cl)cc1)C1(O)CCNC(Cc2ccc(F)c(F)c2)C1 (stereo not drawn) [Compound 189] | 1.76 (≈ 3.17 µM) | 160 | 2.78 (≈ 5.01 µM) | – | –
12 | COc1nc2ccc(SC)cc2cc1C(c1ccc(Cl)cc1)C1(O)CCNC(Cc2ccc(F)c(F)c2)C1 (stereo not drawn) [Compound 191] | 3.50 (≈ 6.31 µM) | 162 | 3.50 (≈ 6.31 µM) | – | –
13 | COc1nc2ccc(Br)cc2cc1C(c1ccccc1)C1(O)CCNC(c2ccc(F)cc2C)C1 (stereo not drawn) [Compound 193] | 5.35 (≈ 9.99 µM) | 147 | 5.35 (≈ 9.99 µM) | – | –
14 | COc1nc2ccc(Br)cc2cc1C(c1ccccc1)C1(O)CCNC(c2ccc(F)cc2C)C1 (stereo not drawn) [Compound 194] | 1.69 (≈ 3.16 µM) | 149 | 2.68 (≈ 5.01 µM) | – | –
15 | COc1nc2ccc(SC)cc2cc1C(c1ccccc1)C1(O)CCNC(c2ccc(F)cc2C)C1 (stereo not drawn) [Compound 195] | 3.17 (≈ 6.31 µM) | 153 | 2.00 (≈ 3.98 µM) | – | –
16 | COc1nc2ccc(SC)cc2cc1C(c1ccccc1)C1(O)CCNC(c2ccc(F)cc2C)C1 (stereo not drawn) [Compound 197] | 1.59 (≈ 3.16 µM) | 138 | 1.59 (≈ 3.16 µM) | – | –
17 | COc1nc2ccc(SC)cc2cc1C(c1ccccc1)C1(O)CCNC(c2ccc(F)cc2C)C1 (stereo not drawn) [Compound 198] | 3.17 (≈ 6.31 µM) | 187 | 3.17 (≈ 6.31 µM) | – | –
18 | COc1nc2ccc(S(C)(=O)=O)cc2cc1C(c1ccc(Cl)cc1)C1(O)CCNC(c2ccc(F)cc2C)C1 (stereo not drawn) [Compound 199] | 7.16 (≈ 12.6 µM) | 192 | 7.16 (≈ 12.6 µM) | – | –

Further lines, results first:

Row | IC90 STA B29213 [1] [µg/mL] | melting point [°C] | IC90 MSM 607 [2] [µg/mL] | IC90 [1] [µg/mL] | IC90 [2] [µg/mL] | SMILES
19 | 5.69 (≈ 10 µM) | 187 | 5.69 (≈ 10 µM) | – | – | COc1nc2ccc(S(C)(=O)=O)cc2cc1C(c1ccc(Cl)cc1)C1(O)CCNC(c2ccc(F)cc2C)C1 (stereo not drawn) [Compound 200]
20 | 1.80 (≈ 3.16 µM) | 186 | 2.27 (≈ 3.99 µM) | – | – | COc1nc2ccc(S(C)(=O)=O)cc2cc1C(c1ccc(Cl)cc1)C1(O)CCNC(c2ccc(F)cc2C)C1 (stereo not drawn) [Compound 202]
21 | 10.80 (≈ 20 µM) | > 250 | – | – | 6.81 (≈ 12.6 µM) | CSc1ccc2[nH]c(=O)c(C(c3ccc(Cl)cc3)C3(O)CCNC(Cc4ccc(F)c(F)c4)C3)cc2c1 (stereo not drawn) [Compound 203]
22 | – | 150 | – | 14.8 (≈ 25.1 µM) | 7.39 (≈ 12.6 µM) | COc1nc2ccc(S(C)(=O)=O)cc2cc1C(c1ccc(Cl)cc1)C1(O)CCNC(Cc2ccc(F)c(F)c2)C1 (stereo not drawn) [Compound 211]
23 | 7.16 (≈ 12.6 µM) | 152 | 5.69 (≈ 10 µM) | – | – | COc1nc2ccc(S(C)(=O)=O)cc2cc1C(c1ccc(Cl)cc1)C1(O)CCNC(c2ccc(F)cc2C)C1 (stereo not drawn) [Compound 216]
24 | 1.27 (≈ 2.23 µM) | 169 | 0.90 (≈ 1.58 µM) | – | – | COc1nc2ccc(S(C)(=O)=O)cc2cc1C(c1ccc(Cl)cc1)C1(O)CCNC(c2ccc(F)cc2C)C1 (stereo not drawn) [Compound 217]
25 | 5.69 (≈ 10 µM) | 174 | 2.85 (≈ 5.01 µM) | – | – | COc1nc2ccc(S(C)(=O)=O)cc2cc1C(c1ccc(Cl)cc1)C1(O)CCNC(c2ccc(F)cc2C)C1 (stereo not drawn) [Compound 218]
26 | 3.59 (≈ 6.31 µM) | 156 | 1.80 (≈ 3.16 µM) | – | – | COc1nc2ccc(S(C)(=O)=O)cc2cc1C(c1ccc(Cl)cc1)C1(O)CCNC(c2ccc(F)cc2C)C1 (stereo not drawn) [Compound 219]
27 | – | 221 | 0.90 (≈ 1.58 µM) | 1.8 (≈ 3.16 µM) | – | COc1nc2ccc(Br)cc2cc1C(c1ccc(Cl)cc1)C1(O)CCNCC1Cc1cccc(F)c1 (stereo not drawn) [Compound 226]
28 | 1.80 (≈ 3.16 µM) | 196 | 2.86 (≈ 5.02 µM) | – | – | COc1nc2ccc(Br)cc2cc1C(c1ccc(Cl)cc1)C1(O)CCNCC1Cc1cccc(F)c1 (stereo not drawn) [Compound 228]
29 | 2.40 (≈ 4.47 µM) | 205 | 1.51 (≈ 2.81 µM) | – | – | COc1nc2ccc(SC)cc2cc1C(c1ccc(Cl)cc1)C1(O)CCNC(c2ccc(F)cc2C)C1 (stereo not drawn) [Compound 244]
30 | 1.91 (≈ 3.56 µM) | 147 | 1.07 (≈ 1.99 µM) | – | – | COc1nc2ccc(SC)cc2cc1C(c1ccc(Cl)cc1)C1(O)CCNC(c2ccc(F)cc2C)C1 (stereo not drawn) [Compound 245]
31 | – | 100 | – | > 11.8 | > 11.8 | COc1nc2ccc(CN)cc2cc1[C@@H](c1ccccc1)C1(O)CCNC(Cc2ccccc2)C1 (stereo partly drawn) [Compound 246]
32 | 3.38 (≈ 6.31 µM) | 132 | 1.69 (≈ 3.16 µM) | – | – | COc1nc2ccc(Br)cc2cc1C(c1ccccc1)C1(O)CCNC(c2ccc(F)cc2C)C1 (stereo not drawn) [Compound 247]
33 | 3.38 (≈ 6.31 µM) | 134 | 2.68 (≈ 5.01 µM) | – | – | COc1nc2ccc(Br)cc2cc1C(c1ccccc1)C1(O)CCNC(c2ccc(F)cc2C)C1 (stereo not drawn) [Compound 248]
34 | 1.69 (≈ 3.16 µM) | 178 | 1.07 (≈ 2 µM) | – | – | COc1nc2ccc(Br)cc2cc1C(c1ccccc1)C1(O)CCNC(c2ccc(F)cc2C)C1 (stereo not drawn) [Compound 249]
35 | 1.69 (≈ 3.16 µM) | 125 | 1.35 (≈ 2.52 µM) | – | – | COc1nc2ccc(Br)cc2cc1C(c1ccccc1)C1(O)CCNC(c2ccc(F)cc2C)C1 (stereo not drawn) [Compound 250]
36 | 13.43 (≈ 25.1 µM) | 183 | 10.67 (≈ 20 µM) | – | – | COc1nc2ccc(S(C)(=O)=O)cc2cc1C(c1ccccc1)C1(O)CCNC(c2ccc(F)cc2C)C1 (stereo not drawn) [Compound 251]
37 | >13.43 | 152 | >13.43 | – | – | COc1nc2ccc(S(C)(=O)=O)cc2cc1C(c1ccccc1)C1(O)CCNC(c2ccc(F)cc2C)C1 (stereo not drawn) [Compound 252]
38 | 2.49 (≈ 4.46 µM) | 118 | 2.22 (≈ 3.98 µM) | – | – | COc1nc2ccc(Br)cc2cc1C(c1ccc(Cl)cc1)C1(O)CCNC(CC2CCCCC2)C1 (stereo not drawn) [Compound 256]
39 | 4.97 (≈ 8.91 µM) | 108 | 3.14 (≈ 5.63 µM) | – | – | COc1nc2ccc(Br)cc2cc1C(c1ccc(Cl)cc1)C1(O)CCNC(CC2CCCCC2)C1 (stereo not drawn) [Compound 257]
40 | 1.76 (≈ 3.15 µM) | 168 | 1.40 (≈ 2.51 µM) | – | – | COc1nc2ccc(Br)cc2cc1C(c1ccc(Cl)cc1)C1(O)CCNC(CC2CCCCC2)C1 (stereo not drawn) [Compound 259]
41 | 3.39 (≈ 6.31 µM) | 104 | 3.39 (≈ 6.31 µM) | – | – | COc1nc2ccc(SC)cc2cc1C(c1ccc(Cl)cc1)C1(O)CCNC(Cc2ccc(F)cc2)C1 (stereo not drawn) [Compound 260]
42 | 1.70 (≈ 3.17 µM) | 122 | 1.70 (≈ 3.17 µM) | – | – | COc1nc2ccc(SC)cc2cc1C(c1ccc(Cl)cc1)C1(O)CCNC(Cc2ccc(F)cc2)C1 (stereo not drawn) [Compound 261]
43 | 7.59 (≈ 14.1 µM) | 94 | 3.39 (≈ 6.31 µM) | – | – | COc1nc2ccc(SC)cc2cc1C(c1ccc(Cl)cc1)C1(O)CCNC(Cc2ccc(F)cc2)C1 (stereo not drawn) [Compound 262]
